Reference: ChEMBL document CHEMBL1201862, “PubChem BioAssay data set” (2004)
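Step 1: Grow cells in 96-well plates. Step 2: Expose to compound for 48 hours at 5 concentrations. Step 3: Interpolate endpoints linearly; if unreached, use highest concentration. GI50 marks 50% less growth.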 Active and inactive are the calls of the source. No stated cut-off is given here; in the data, active = GI50 up to about 1.1 µM and inactive = higher.

Assays:
Experiment in all cases: NCI anticancer screen, dose series, 48 h
[1] = tested on: K562
[2] = tested on: SN12C
[3] = tested on: CCRF-CEM
[4] = tested on: EKVX
[5] = tested on: SK-MEL-5
[6] = tested on: ACHN
[7] = tested on: SF-295
[8] = tested on: KM12
[9] = tested on: IGROV-1
[10] = tested on: HCC 2998
[11] = tested on: OVCAR-5
[12] = tested on: SR
[13] = tested on: HOP-62
[14] = tested on: NCI-H23
[15] = tested on: SK-MEL-28
[16] = tested on: NCI-H226
[17] = tested on: Malme-3M
[18] = tested on: LOX IMVI

Measured: GI50

C/C(=N\NS(=O)(=O)c1ccccc1)c1ccc[n+]([O-])n1
inactive: [1] 21 µM | [2] > 100 µM | [3] 19.4 µM | [4] > 100 µM | [5] > 100 µM | [6] > 100 µM | [7] > 100 µM | [8] > 100 µM | [9] > 100 µM | [10] > 100 µM | [11] > 100 µM | [12] 32.3 µM | [13] > 100 µM | [14] > 100 µM | [15] 62.5 µM

O=c1[nH]cc(COCC(O)CO)c(=O)[nH]1 (centres undefined)
inactive: [1] > 100 µM | [2] > 100 µM | [3] > 100 µM | [4] > 100 µM | [5] > 100 µM | [16] > 100 µM | [6] > 100 µM | [17] > 100 µM | [7] > 100 µM | [18] > 100 µM | [8] > 100 µM | [9] > 100 µM | [11] > 100 µM | [13] > 100 µM | [14] > 100 µM | [15] > 100 µM

C=CCc1cc(OC)c(O)c(C(=O)/C=C/c2ccc(OC)c(OC)c2)c1
inactive: [1] 10.7 µM | [3] 9.98 µM | [4] 20.2 µM | [5] 15.3 µM | [6] 19.9 µM | [17] 18.6 µM | [7] 16.1 µM | [18] 16.3 µM | [8] 19.5 µM | [9] 44.6 µM | [10] 21.8 µM | [11] 20.1 µM | [13] > 10 µM | [14] 15 µM | [15] 16.9 µM

CN1CC(C(=O)C2C(=O)c3ccccc3C2=O)C(=O)C(=O)C(C(=O)C2C(=O)c3ccccc3C2=O)C1 (centres undefined)
inactive: [1] > 100 µM | [2] > 100 µM | [3] > 100 µM | [6] > 100 µM | [17] > 100 µM | [7] > 100 µM | [18] > 100 µM | [8] > 100 µM | [9] > 100 µM | [10] > 100 µM | [11] > 100 µM | [12] > 100 µM | [13] > 10 µM | [14] > 100 µM | [15] > 100 µM

CCOC(=O)c1s/c(=N\Nc2nc3ccccc3cc2C2OCCO2)n(Cc2ccccc2)c1C
inactive: [1] > 100 µM | [2] > 100 µM | [3] > 100 µM | [4] > 100 µM | [5] > 100 µM | [16] > 100 µM | [6] > 100 µM | [17] > 100 µM | [7] > 100 µM | [18] > 100 µM | [8] > 100 µM | [9] > 100 µM | [11] > 100 µM | [12] 4.65 µM | [13] > 100 µM | [14] > 100 µM | [15] > 100 µM

O=C1NC(=O)C(C(=O)C(=O)Nc2cccc(C(F)(F)F)c2)C(=O)N1
inactive: [1] > 100 µM | [3] > 100 µM | [4] > 100 µM | [5] > 100 µM | [6] > 100 µM | [17] > 100 µM | [18] > 100 µM | [8] > 100 µM | [9] > 100 µM | [10] > 100 µM | [11] > 100 µM | [13] > 100 µM | [14] > 100 µM | [15] > 100 µM

N#Cc1ccccc1NC(=O)c1ccccc1
inactive: [1] > 100 µM | [2] > 100 µM | [4] > 100 µM | [5] > 100 µM | [6] > 100 µM | [17] > 100 µM | [7] > 100 µM | [18] > 100 µM | [8] > 100 µM | [9] > 100 µM | [11] > 100 µM | [12] > 100 µM | [13] > 100 µM | [14] > 100 µM | [15] > 100 µM

CC1COS(=O)N1c1ccccc1 (centres undefined)
inactive: [1] > 100 µM | [3] > 100 µM | [4] > 100 µM | [5] > 100 µM | [16] > 100 µM | [6] > 100 µM | [17] > 100 µM | [7] > 100 µM | [18] > 100 µM | [8] > 100 µM | [9] > 100 µM | [10] > 100 µM | [11] > 100 µM | [13] > 100 µM | [14] > 100 µM | [15] > 100 µM

O=C1NC(=O)C(=Cc2c3ccccc3cc3ccccc23)C(=O)N1
inactive: [1] 71.3 µM | [2] > 100 µM | [3] 59.3 µM | [5] > 100 µM | [6] > 100 µM | [18] > 100 µM | [9] > 100 µM | [13] > 100 µM | [14] > 100 µM | [15] > 100 µM

Nc1nc(SCCC/C=C/B(O)O)nc2c1ncn2C1OC(COP(=O)(O)O)C(O)C1O (centres undefined)
inactive: [1] > 203 µM | [2] > 203 µM | [3] > 203 µM | [5] > 203 µM | [16] > 203 µM | [6] > 203 µM | [17] > 203 µM | [7] > 203 µM | [18] > 203 µM | [8] > 203 µM | [9] > 203 µM | [11] > 203 µM | [12] > 203 µM | [13] > 203 µM | [14] > 203 µM | [15] > 203 µM

Cc1nn(-c2ccccc2)c2nc(N3CCOCC3)nnc12
inactive: [1] > 100 µM | [2] > 100 µM | [3] > 100 µM | [4] > 100 µM | [5] 49.2 µM | [6] 71.9 µM | [17] 64 µM | [7] > 100 µM | [18] > 100 µM | [8] > 100 µM | [9] > 100 µM | [10] > 100 µM | [11] > 100 µM | [13] > 100 µM | [14] 79.6 µM | [15] > 100 µM

CC(=O)OCC(OC(C)=O)C(OC(C)=O)C(OC(C)=O)C(=O)CNn1c(-c2ccc(C)cc2)nc2ccccc2c1=O (centres undefined)
inactive: [1] > 100 µM | [2] 76 µM | [3] > 100 µM | [4] > 100 µM | [5] > 100 µM | [6] > 100 µM | [17] > 100 µM | [7] > 100 µM | [18] > 100 µM | [8] > 100 µM | [11] > 100 µM | [12] 41.2 µM | [13] > 100 µM | [14] > 100 µM | [15] > 100 µM

CC(C)N(C(=O)C12C3C4C1(I)C1C2C3(I)C41C(=O)N(C(C)C)C(C)C)C(C)C (centres undefined)
inactive: [1] > 43.4 µM | [2] > 100 µM | [3] > 41.8 µM | [4] > 100 µM | [5] > 100 µM | [16] > 100 µM | [6] > 100 µM | [17] > 100 µM | [7] > 100 µM | [18] > 43.5 µM | [8] > 43.2 µM | [9] > 100 µM | [10] > 100 µM | [11] > 100 µM | [13] > 100 µM | [14] > 100 µM | [15] > 100 µM

Nc1nc(=O)c(/N=N/c2ccccc2)c(N)[nH]1
inactive: [1] 11 µM | [2] 52.7 µM | [3] 36.5 µM | [5] 51.8 µM | [16] 76 µM | [6] 27.4 µM | [17] 15.3 µM | [7] 32.7 µM | [18] 47.5 µM | [8] 56.2 µM | [9] 29.6 µM | [10] 38.4 µM | [11] 41.3 µM | [12] > 100 µM | [13] 30.8 µM | [14] 22.8 µM | [15] 24.8 µM

CCCNC(=O)C(C)(Cl)C(=O)c1ccccc1O (centres undefined)
inactive: [1] > 100 µM | [2] > 100 µM | [3] > 100 µM | [5] > 100 µM | [16] > 100 µM | [6] > 100 µM | [17] > 100 µM | [8] > 100 µM | [9] > 100 µM | [10] > 100 µM | [12] > 100 µM | [13] > 100 µM | [15] > 100 µM

COc1ccccc1NC(=O)C1=C(C)NC(C)=C(C(=O)Nc2ccccc2OC)C1c1ccc([N+](=O)[O-])cc1
inactive: [1] 49.3 µM | [2] > 100 µM | [3] 19.5 µM | [4] 82.6 µM | [5] 30.7 µM | [16] > 100 µM | [6] 52.8 µM | [17] > 100 µM | [7] 13.4 µM | [18] 48.9 µM | [8] 51.6 µM | [9] > 100 µM | [11] 22.4 µM | [12] 67.5 µM | [13] > 100 µM | [14] 58.6 µM | [15] 27 µM

CCCCCNC(=O)C1C(=O)N(CCCCC)C(=O)/C1=N\N (centres undefined)
inactive: [1] 34.4 µM | [2] 54.2 µM | [3] 49.2 µM | [4] 86.7 µM | [5] 29 µM | [6] 59.8 µM | [17] > 100 µM | [7] 30.5 µM | [8] 53.2 µM | [9] 53 µM | [10] 35.3 µM | [11] > 100 µM | [13] 35.5 µM | [14] 47.5 µM | [15] 62.8 µM
